Data taken from PMC11879280, “Antimicrobial activity of peptoids against Metallo-β-lactamase-producing Klebsiella pneumoniae, Acinetobacter baumannii, Pseudomonas aeruginosa, and other WHO priority pathogens, including Candida auris” (Journal of Applied Microbiology, 2025).
Read-outs that look alike come from different tables or passages of the source. Ends that are not written are not given here.

How the values were obtained:
[1] = test system: C. auris CBS12373; experiment: Broth microdilution MIC; format: cell-based, Candida auris; settings: CBS 12 373
[2] = test system: C. auris strains; settings: two C. auris strains
Summary of the method: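 Inoculum 5 × 10^5 CFU ml^−1 in CAMHB for antibiotics or MHB for peptidomimetics; incubated 37°C, 120 rpm, 16–20 h. Suspensions plated on Trypticase Soya Agar with phosphatidylcholine and Tween 80 for MBC/MFC. Geometric mean MIC computed across pathogens; therapeutic index calculated by formula.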

[3] = test system: horse red blood cells (RBCs); experiment: Haemolysis assay; format: cell-based; settings: horse RBCs in PBS, 37°C, 4 h
Summary of the method: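 Washed horse RBCs exposed to peptoids at 0.5–250 μg ml^−1 in PBS for 4 h at 37 °C; supernatant OD 540 nm read after centrifugation. Percent haemolysis normalized between PBS (0%) and water (100%) controls, in triplicate.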

[4] = test system: A. baumannii 006; settings: A. baumannii 006
Summary of the method: (§1)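 Suspensions of 5 × 10^5 CFU ml^−1 were incubated with compounds for 16–20 h at 37°C and 120 rpm, the medium being MHB for peptidomimetics and cation-adjusted MHB for antibiotics. Wells were afterwards log10 diluted and plated to obtain MBC.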

[5] = test system: A. baumannii 007; settings: A. baumannii 007
Summary of the method: as §1

[6] = test system: A. baumannii 008; settings: A. baumannii 008
Summary of the method: as §1

[7] = test system: A. baumannii ATCC 19 606; settings: A. baumannii ATCC 19 606
Summary of the method: as §1

[8] = test system: E. coli 0011; settings: E. coli 0011
Summary of the method: as §1

[9] = test system: E. coli 0015; settings: E. coli 0015
Summary of the method: as §1

[10] = test system: E. coli 005; settings: E. coli 005
Summary of the method: as §1

[11] = test system: En. cloacae 001; settings: En. cloacae 001
Summary of the method: as §1

[12] = test system: En. cloacae 003; settings: En. cloacae 003
Summary of the method: as §1

[13] = test system: En. cloacae 005; settings: En. cloacae 005
Summary of the method: as §1

[14] = test system: K. pneumoniae JIE2713; settings: K. pneumoniae JIE2713
Summary of the method: as §1

[15] = test system: K. pneumoniae JIE4212; settings: K. pneumoniae JIE4212
Summary of the method: as §1

[16] = test system: P. aeruginosa 216; settings: P. aeruginosa 216; MHB (melimine/Mel4 with 0.2% BSA, 0.01% acetic acid); mean MIC
Summary of the method: as §1

[17] = test system: P. aeruginosa 33; settings: P. aeruginosa 33
Summary of the method: as §1

[18] = test system: P. aeruginosa AR-1270; settings: P. aeruginosa AR-1270; MHB (melimine/Mel4 with 0.2% BSA, 0.01% acetic acid); mean MIC
Summary of the method: as §1

[19] = test system: S. aureus 117; settings: S. aureus 117
Summary of the method: as §1

[20] = test system: S. aureus 38; settings: S. aureus 38
Summary of the method: as §1

[21] = OD 540 nm, triplicate, best fit curve
[22] = MHB (melimine/Mel4 with 0.2% BSA, 0.01% acetic acid), mean MIC

**Q.** Which “MIC against C. auris” value ([1]; RPMI 1640 with MOPS, 5 × 10^3 CFU ml^−1, ≥90% reduction (≥50% for fluconazole)) does the source give for “TLISWIKNKRKQRPRVSRRRRRRGGRRRR [Melimine]” here?
**A.** 3.9 µg/mL

**Q.** What about the “MIC against C. auris” value ([1]; value in brackets) of the same sequence?
**A.** 1.03 µM

**Q.** And the “Geometric mean MICCA” value [2]?
**A.** 22.1 µg/mL

**Q.** What about the “HD10 (10% haemolytic dose)” value [3, 21] of the same sequence?
**A.** > 256 µg/mL

**Q.** And the “HD50 (50% haemolytic dose)” value [3, 21]?
**A.** > 256 µg/mL

**Q.** What about the “HD10 (10% haemolytic dose)” value ([3]; value in brackets) of the same sequence?
**A.** > 67.6 µmol/L

**Q.** What about the “HD50 (50% haemolytic dose)” value ([3]; value in brackets) of the same sequence?
**A.** > 67.7 µmol/L

**Q.** And the MIC of peptidomimetics [4, 22]?
**A.** 62.5 µg/mL

**Q.** And the MIC of peptidomimetics ([4]; value in brackets)?
**A.** 16.5 µM

**Q.** What about the MIC of peptidomimetics [5, 22] of the same sequence?
**A.** 125 µg/mL

**Q.** And the MIC of peptidomimetics ([5]; value in brackets)?
**A.** 33.0 µM

**Q.** And the MIC of peptidomimetics [6, 22]?
**A.** 250 µg/mL

**Q.** What about the MIC of peptidomimetics ([6]; value in brackets) of the same sequence?
**A.** 66.0 µM

**Q.** And the MIC of peptidomimetics [7, 22]?
**A.** 62.5 µg/mL

**Q.** And the MIC of peptidomimetics ([7]; value in brackets)?
**A.** 16.5 µM

**Q.** And the MIC of peptidomimetics [8, 22]?
**A.** 125 µg/mL

**Q.** What about the MIC of peptidomimetics ([8]; value in brackets) of the same sequence?
**A.** 33.0 µM

**Q.** What about the MIC of peptidomimetics [9, 22] of the same sequence?
**A.** 125 µg/mL

**Q.** What about the MIC of peptidomimetics ([9]; value in brackets) of the same sequence?
**A.** 33.0 µM

**Q.** And the MIC of peptidomimetics [10, 22]?
**A.** 250 µg/mL

**Q.** And the MIC of peptidomimetics ([10]; value in brackets)?
**A.** 66.0 µM

**Q.** And the MIC of peptidomimetics [11, 22]?
**A.** 125 µg/mL

**Q.** And the MIC of peptidomimetics ([11]; value in brackets)?
**A.** 33.0 µM

**Q.** And the MIC of peptidomimetics [12, 22]?
**A.** 125 µg/mL

**Q.** What about the MIC of peptidomimetics ([12]; value in brackets) of the same sequence?
**A.** 33.0 µM

**Q.** And the MIC of peptidomimetics [13, 22]?
**A.** 250 µg/mL

**Q.** And the MIC of peptidomimetics ([13]; value in brackets)?
**A.** 66.0 µM

**Q.** What about the MIC of peptidomimetics [14, 22] of the same sequence?
**A.** 125 µg/mL

**Q.** And the MIC of peptidomimetics ([14]; value in brackets)?
**A.** 33.0 µM

**Q.** And the MIC of peptidomimetics [15, 22]?
**A.** 250 µg/mL

**Q.** What about the MIC of peptidomimetics ([15]; value in brackets) of the same sequence?
**A.** 66.0 µM

**Q.** And the MIC of peptidomimetics [16]?
**A.** 500 µg/mL

**Q.** What about the MIC of peptidomimetics [17, 22] of the same sequence?
**A.** 62.5 µg/mL

**Q.** And the MIC of peptidomimetics ([17]; value in brackets)?
**A.** 16.5 µM

**Q.** What about the MIC of peptidomimetics [18] of the same sequence?
**A.** 500 µg/mL

**Q.** And the MIC of peptidomimetics [19, 22]?
**A.** 31.3 µg/mL

**Q.** What about the MIC of peptidomimetics ([19]; value in brackets) of the same sequence?
**A.** 8.2 µM

**Q.** What about the MIC of peptidomimetics [20, 22] of the same sequence?
**A.** 31.3 µg/mL

**Q.** And the MIC of peptidomimetics ([20]; value in brackets)?
**A.** 8.2 µM
